The values that follow come from US5776932A, “1,3,5-tribsubstituted indazole derivatives, processes for preparing, and for pharmacological treatment therewith” (Arzneimittelwerk Dresden G.m.b.H., priority 1996, dated 1998).

In test [1] the target is T1, arachidonate-5-lipoxygenase (Rattus norvegicus, UniProt P12527).
T1 construct: using prepared macrophages from Wistar rats; endogenous in cells; host or cells: prepared macrophages from Wistar rats
T1 sequence (P12527 1-673): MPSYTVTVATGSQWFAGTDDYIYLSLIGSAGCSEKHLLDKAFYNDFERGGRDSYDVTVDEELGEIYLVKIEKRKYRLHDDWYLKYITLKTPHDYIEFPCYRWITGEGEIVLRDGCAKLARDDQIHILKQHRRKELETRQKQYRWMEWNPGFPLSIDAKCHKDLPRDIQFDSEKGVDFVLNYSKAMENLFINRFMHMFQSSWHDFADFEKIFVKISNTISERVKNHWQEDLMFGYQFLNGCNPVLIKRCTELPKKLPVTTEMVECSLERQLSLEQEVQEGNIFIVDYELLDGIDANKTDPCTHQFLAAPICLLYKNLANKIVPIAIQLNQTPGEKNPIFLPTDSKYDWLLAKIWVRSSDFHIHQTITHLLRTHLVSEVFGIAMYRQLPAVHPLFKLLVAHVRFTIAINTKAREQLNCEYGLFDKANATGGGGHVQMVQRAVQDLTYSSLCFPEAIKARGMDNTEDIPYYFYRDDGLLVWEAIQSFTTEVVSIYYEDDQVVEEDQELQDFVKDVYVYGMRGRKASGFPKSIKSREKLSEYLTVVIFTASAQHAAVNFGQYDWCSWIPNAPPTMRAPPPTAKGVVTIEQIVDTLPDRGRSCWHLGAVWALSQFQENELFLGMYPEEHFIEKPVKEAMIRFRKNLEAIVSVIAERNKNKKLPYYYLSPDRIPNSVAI
Description: Inhibition of 5-lipoxygenase in prepared macrophages from Wistar rats. It counts as cell-based. Particulars: quadruple determinations, mean IC50, read-out: IC50 (50% inhibition of 5-lipoxygenase). The source says:
Murphy, R. C. and Matthews, W. R., Purification and Characterization of Leukotrienes from Mastocytoma Cells, Methods in Enzymology, 86, pp. 409-416.
Argentiere, D. D., Ritchie, D. M. et al., Tepoxalin: A Dual Cyclooxygenase/5-Lipoxygenase Inhibitor of Arachidonic Acid Metabolism with Potent Anti-inflammatory Activity and a Favorable Gastrointestinal Profile, The Journal of Pharmacology and Experimental Therapeutics, Vol. 271, No. 3, 1399-1408, 1994.
Carter, G. W., Young, P. R. et al., 5-Lipoxygenase Inhibitory activity of Zileuton, The Journal of Pharmacology and Experimental Therapeutics, Vol. 256, No. 3, 1991.
The experiments were all conducted as quadruple determinations, by combining four partial experiments in each case were combined to determine the mean IC50 value.

The subject of test [2] is SRS-A bronchoconstriction in guinea-pigs sensitized with ovalbumin. The test is described as follows: SRS-A bronchoconstriction in anaesthetized, ovalbumin-sensitized guinea-pigs after inhalation of antigen. It counts as in vivo. As to conditions: -2 hrs, 1% OA, 20 inspirations. As for the experimental part:
For this purpose, guinea-pigs are actively sensitized against ovalbumin (OA) with 20 μg OA+20 mg Al(OH)3 in 0.5 ml, administered intraperitoneally (i.p.) and a booster dose of the same is administered 14 days later. One week after the booster dose, the animals are i.p. anaesthetized with urethane and connected to an apparatus (Mumed Physiological Recorder 800) for the determination of pulmonary function parameters. The animals are pretreated with mepyramine to antagonize the histamine, with indomethacin to inhibit the formation of prostaglandins, and with propanolol to eliminate β-adrenergic mechanisms. If an allergic reaction is induced after this treatment, the associated bronchospam is extensively attributable to the effect of leukotrienes.
Before the experiment the test substances were administered orally two hours before the challenge. After an equilibration period an asthmatic challenge attack is induced by the nebulization of a 1% ovalbumin solution over 20 inspirations.
The drop in dynamic compliance is used as a suitable and well reproducible parameter for characterizing the action of leukotrienes. Under control conditions, after pretreatment and ovalbumin challenge, guinea-pigs react with a slow drop in compliance of c. 30-40% over 15 minutes.

Test [3] has as its system tracheal segments from actively sensitized guinea-pigs. The test is described as follows: Inhibition of the antigen (ovalbumin)-induced contraction of isolated tracheal segments from actively sensitized guinea-pigs. More on the design: species or system guinea-pig. As to conditions: Cavia porcellus; at 1.0 μmol/l; under mepyramine and indomethacin protection; read-out: maximum inhibition (ovalbumin-induced contraction). The procedure:
For this purpose, isolated tracheal segments from guinea-pigs actively sensitized against ovalbumin by the s.c. administration of 10 μg of ovalbumin with 1 mg of aluminum hydroxide adjuvant, three weeks before removal of the organ, and a booster dose of the same amount of ovalbumin and aluminum hydroxide s.c. one week before removal of the organ. The segments were placed in organ baths filled with a nutrient solution aerated with carbogen which is a mixture of 95% oxygen and 5% carbon dioxide, and kept at 37° C., and were connected to isometric force transducers. After preincubation with mepyramine to eliminate histamine, and indomethacin for the inhibition of cyclooxygenase, 5×10^-7 mol/l carbachol (carbamylcholine chloride) was added and a contraction was induced. 10 μg/ml ovalbumin as an allergen was then added to the bath liquid and the maximum contraction of the tracheal segments which was thereby induced was correlated with the effect of the carbachol as control (=100%). The test substances were added to the organ bath 30 minutes before the allergen-induced contraction. Table 2 below indicates the IC50 values, i.e. the concentrations which cause a 50% inhibition of the contraction of isolated tracheal segments from the guinea-pig. The IC50 values were determined by testing 3-4 concentrations on 4-8 organs in each case.

Test [4] concerns late phase eosinophilia. Description: Inhibition of late phase eosinophilia 24 hours after the inhalational ovalbumin challenge on actively sensitized guinea-pigs. As to conditions: -2 h; for EOS, B (eosinophils in the group treated with the substance, with challenge): x ± s. Format: in vivo. The source says: Eosinophilic granulocytes play an important part in the transition of allergic diseases, e.g. bronchial asthma, to the chronic stage. Thus the bronchoalveolar lavage fluid (BAL) contains an increased number of eosinophils a few hours after an allergen-induced asthmatic attack. Eosinophils are expected to play an important part in cell damage since they contain histotoxic proteins, like major basic protein (MBP) and eosinophil cation protein (ECP), in their granula. It is also assumed that substances which prevent the infiltration of eosinophils have a therapeutic action against allergic diseases like bronchial asthma.
The inhibition of eosinophil infiltration by the substances was tested in vivo on guinea-pigs actively sensitized against ovalbumin by the substantenous administration of 10 μg of OA, with 1 μg of aluminum hydroxide adjuvant, three weeks before the beginning of the experiment, and a booster dose containing the same amount of OA and aluminum hydroxide was administrated substantaneously one week before the beginning of the experiment. Three weeks after the first sensitization, the animals were placed in a plastic box and exposed to an aerosol of 0.5% OA dissolved in a physiological saline solution. The nebulization time was 20-30 seconds. After 24 hours the animals were intraperitoneally anaesthetized with 1.5 g/kg body weight ethylurethane and a bronchioalveolar lavage was performed with 2×5 ml of physiological saline solution. The lavage fluid was collected and centrifuged at 400 G for 10 minutes and the cell pellet was then resuspended in 1 ml of physiological saline solution. The eosinophils were microscopically counted in a Neubauer chamber after staining using the No. 5877 Becton-Dickinson test kit for eosinophilia. The number of eosinophils was indicated in millions per animal. Each test was also carried out with two control groups with and without antigen challenge.
The percentage inhibition of the eosinophilia in the experimental groups treated with the substance is calculated by the following formula:
(A-C)-(B-C)/(A-C)×100=% inhibition
The test substances were administered orally or intraperitoneally as a triturate in 0.5% 5-hydroxyethylcellulose two hours before the antigen challenge.

On to `COc1ccc2c(c1)c(O)nn2CC=Cc1ccccc1` [Example 36, 5-methoxy-1-(3-phenylallyl)-1H-indazole-3-ol], for which, in test [1], the IC50 (as a rule, the concentration that gives 50% inhibition) came out at 299 nM.
On the same count and under the same terms, the same measure for `COc1ccc2c(c1)c(O)nn2Cc1cccc(Cl)c1F` [Example 10, 1-(3-chloro-2-flurobenzyl)-5-methoxy-1H-indazole-3-ol]: 829 nM; for `COc1ccc2c(c1)c(O)nn2Cc1ccc(Br)cc1` [Example 11, 1-(4-bromobenzyl)-5-methoxy-1H-indazole-3-ol]: 765 nM.
Consider `COc1ccc2c(c1)c(O)nn2Cc1cccc(Cl)c1` [Example 3, 1-(3-chlorobenzyl)-5-methoxy-1H-indazole-3-ol], for which the IC50 in test [1] came out at 470 nM.
`COc1ccc2c(c1)c(O)nn2Cc1ccc(OCc2ccc3ccccc3n2)cc1` [Example 49]: the half-inhibitory concentration (IC50) in test [1] was determined as 86 nM.
Take `COc1ccc2c(c1)c(O)nn2Cc1ccccc1Cl` [Example 4, 1-(2-chlorobenzyl)-5-methoxy-1H-indazole-3-ol]: the half-maximal inhibitory concentration (IC50) in test [1] was 710 nM.
As to `COc1ccc2c(c1)c(O)nn2Cc1ccc(Cl)cc1` [Example 2, 1-(4-chlorobenzyl)-5-methoxy-1H-indazole-3-ol], the half-maximal inhibitory concentration (IC50) in test [1] was found to be 400 nM.
Regarding `COc1ccc2c(c1)c(O)nn2Cc1ccc(OCc2ccccc2)cc1` [[no label printed]], in test [2] (5.0 mg/kg oral), the “% drop in dyn. compliance” value worked out at 32 ± 13% and the % inhibition – broadly, the relative decrease from the control value, in per cent – is 20%. In test [2] (10.0 mg/kg oral), the “% drop in dyn. compliance” value was 9.3 ± 11% and the “% inhibition” value came out at 77%.
As for `COc1ccc2c(c1)c(O)nn2Cc1ccc2ccccc2c1` [Example 23, 5-methoxy-1-naphthalen-2-ylmethyl-1H-indazole-3-ol], the IC50 in test [1] is 265 nM.
Still for that read-out and setting: to `COc1ccc2c(c1)c(O)nn2Cc1cccs1` [Example 24, 5-methoxy-1-thiophen-2-ylmethyl-1H-indazole-3-ol] belongs 500 nM; to `Oc1ccc2c(c1)c(O)nn2Cc1ccc(Cl)cc1Cl` [Example 52, 1-(2,4-dichlorobenzyl)-1H-indazole-3,5-diol], 258 nM.
As to `Oc1ccc2c(c1)c(O)nn2Cc1ccc(Cl)c(Cl)c1` [Example 51, 1-(3,4-dichlorobenzyl)-1H-indazole-3,5-diol], the IC50 in test [1] is 748 nM.
With “1-(2,4-dimethylbenzyl)-5-methoxy-1H-indazole-3-ol [Example 18]”, in test [1], the IC50 stood at 977 nM.
The same measure, in the same setting: to `COc1ccc2c(c1)c(O)nn2CCCOc1ccccc1` [Example 38, 5-methoxy-1-(3-phenoxypropyl)-1H-indazole-3-ol] belongs 655 nM; to `COc1ccc2c(c1)c(O)nn2Cc1cc2c(cc1Cl)OCO2` [Example 31], 874 nM; to `COc1ccc2c(c1)c(O)nn2Cc1ccc(C(C)(C)C)cc1` [Example 19, 1-(4-tert-butylbenzyl)-5-methoxy-1H-indazole-3-ol], 696 nM.
Same read-out and setting: to `COc1ccc2c(c1)c(O)nn2Cc1ccc(Cl)cc1Cl` [Example 7, 1-(2,4-dichlorobenzyl)-5-methoxy-1H-indazole-3-ol] belongs 100 nM; to `COc1ccc2c(c1)c(O)nn2CCCC(=O)c1ccc(F)cc1` [Example 42, 1-(4-fluorophenyl)-4-(3-hydroxy-5-methoxy-1H-indazole-1-yl)butan-1-one], 679 nM.
As for `COc1ccc2c(c1)c(O)nn2CCOc1ccccc1` [Example 37, 5-methoxy-1-(3-phenoxyethyl)-1H-indazole-3-ol], the IC50 in test [1] was determined as 745 nM.
For the compound `COc1ccc2c(c1)c(O)nn2Cc1ccc(OCc2ccccc2)cc1` [Example 1, 1-(4-benzyloxybenzyl)-5-methoxy-1H-indazole-3-ol], the inhibition (in general, the drop in the measured response relative to a control, in per cent) at 1 µM in test [3] came to 36%. For the same compound, in test [4] (1 mg/kg i.p.), the “% inhibition (eosinophilia)” value amounted to 48.7% and the “EOS, B (eosinophils in the group treated with the substance, with challenge)” value worked out at 3.3 ± 1.6 mill./animal. In test [4] (30 mg/kg p.o.), the “% inhibition (eosinophilia)” value came out at 36.0% and the “EOS, B (eosinophils in the group treated with the substance, with challenge)” value came out at 3.7 ± 1.7 mill./animal. Also, in test [1], the IC50 was 171 nM.
As for `COc1ccc2c(c1)c(O)nn2Cc1c(Cl)cccc1Cl` [Example 8, 1-(2,6-dichlorobenzl)-5-methoxy-1H-indazole3-ol], in test [1], the half-inhibitory concentration (IC50) was 750 nM.
Same read-out and setting: the same measure for `COc1ccc2c(c1)c(O)nn2CCC(=O)c1ccccc1` [Example 39, 3-(3-hydroxy-5-methoxyindazole-1-yl)phenyl-propan-1-one]: 150 nM.
Turning to `O=C(Nc1ccc(Cl)c(Cl)c1)Nc1ccc2c(c1)c(O)nn2Cc1ccc(Cl)cc1` [Example 61, 1-[1-(4-chlorobenzyl)-3-hydroxy-1H-indazole-5-yl]-3-(3,4-dichlorophenyl)urea], the IC50 in test [1] is 278 nM.
Same read-out and setting: to `COc1ccc2c(c1)c(O)nn2Cc1ccc(-c2ccccc2)cc1` [Example 22, 1-biphenyl-4-ylmethyl-5-methoxy-1H-indazole-3-ol] belongs 257 nM.
